Numbers after ± are expanded uncertainties.
Settings: Liquid, Ebulliometric method (Recirculating still)

## O=Cc1ccco1 [2-furaldehyde]
435.15 K
  vapor or sublimation pressure: 101.3 ± 0.71 kPa

## CC(=O)N(C)C [N,N-dimethylethanamide]
439.05 K
  vapor or sublimation pressure: 101.3 ± 0.71 kPa

## CC(C)N(C)C [N,N-dimethylisopropylamine]
339.13 K
  vapor or sublimation pressure: 101.3 ± 0.71 kPa

## CC(C)=O [acetone]
329.56 K
  vapor or sublimation pressure: 101.3 ± 0.66 kPa

Reference: the NIST ThermoML archive (doi:10.1016/j.jct.2018.03.019)
